Data taken from patent US7897628B2, “Aryl carbonyl derivatives as therapeutic agents” (Novo Nordisk A/S, priority 2002, dated 2011).

System: glucokinase
Test: Liver specificity: activity in isolated hepatocytes (Glucokinase Activity Assay (II)) compared to Ins-1 cells (Glucokinase Activity Assay (III))
Format: cell-based
Conditions: Glucokinase Activity Assay (II) (isolated hepatocytes) compared to Glucokinase Activity Assay (III) (Ins-1 cells)
Text: For the purpose of describing this invention, the potential liver selectivity of a glucokinase activator may be assayed by comparison of the results obtained in response to the glucokinase activator in isolated hepatocytes and the results obtained in response to the glucokinase activator in Ins-1 cells. […] The activity of the glucokinase activator in Glucokinase Activity Assay (II) (hepatocytes) may for instance be at least 1.1 fold higher, such as at least 1.2 fold higher, for instance at least 1.3 fold higher, such as at least 1.4 fold higher, for instance 1.5 fold higher, such as at least 1.6 fold higher, for instance at least 1.7 fold higher, such as at least 1.8 fold higher, for instance at least 1.9 fold higher, such as at least 2.0 fold higher, for instance at least a 3.0 fold higher, such as at least a 4.0 fold higher, for instance at least 5.0 fold higher, such as at least 10 fold higher than the activity of the glucokinase activator in Glucokinase Activity Assay (III) (Ins-1 cells). Alternatively, the glucokinase activator may show no activity in the Ins-1 cells measured as described in the Glucokinase Activity Assay (III), while showing a significant activity in hepatocytes measured as described in the Glucokinase Activity Assay (II).

liver specific glucokinase activator (significantly higher activity in isolated hepatocytes than in Ins-1 cells)	SMILES
liver specific glucokinase activators	COc1cccc(F)c1Oc1ccc(F)cc1NC(=O)Nc1nc(CC(=O)O)cs1 [(2-{3-[5-fluoro-2-(2-fluoro-6-methoxyphenoxy)phenyl]ureido}thiazol-4-yl)acetic acid]
liver specific glucokinase activators	COc1cccc(F)c1Oc1ccc(F)cc1NC(=O)Nc1nc(CC(=O)NCC(=O)O)cs1 [[2-(2-{3-[5-fluoro-2-(2-fluoro-6-methoxyphenoxy)phenyl]ureido}thiazol-4-yl)acetylamino]acetic acid]
liver specific glucokinase activators	Cc1ccc(NC(=O)Nc2nc(CC(=O)O)cs2)c(C(=O)C2CCCC2)c1 [{2-[3-(2-cyclopentanecarbonyl-4-methyl-phenyl)-ureido]-thiazol-4-yl}-acetic acid]
liver specific glucokinase activators	Cc1ccc(NC(=O)Nc2nc(CC(=O)O)cs2)c(OCC(C)C)c1 [{2-[3-(4-methyl-2-[2-methylpropoxy]phenyl)-ureido]-thiazol-4-yl}-acetic acid]

Further lines, the compound ahead of its results:

SMILES	liver specific glucokinase activator (significantly higher activity in isolated hepatocytes than in Ins-1 cells)
COc1cccc(F)c1Oc1ccc(F)cc1NC(=O)Nc1nc(CC(=O)NCCN2CCOCC2)cs1 [2-(2-{3-[5-fluoro-2-(2-fluoro-6-methoxyphenoxy)phenyl]ureido}thiazol-4-yl)-N-(2-morpholin-4-ylethyl)acetamide]	liver specific glucokinase activators
CCOC(=O)c1csc(NC(=O)Nc2cc(F)ccc2Oc2cccc(OC)c2OC)n1 [2-{3-[2-(2,3-dimethoxyphenoxy)-5-fluorophenyl]ureido}thiazole-4-carboxylic acid ethyl ester]	liver specific glucokinase activators
COc1cccc(Oc2ccc(F)cc2NC(=O)Nc2nc(C(=O)O)cs2)c1OC [2-{3-[2-(2,3-dimethoxyphenoxy)-5-fluorophenyl]ureido}thiazole-4-carboxylic acid]	liver specific glucokinase activators
CCOC(=O)Cc1csc(NC(=O)Nc2cc(F)ccc2Oc2cccc(OC)c2OC)n1 [(2-{3-[2-(2,3-dimethoxyphenoxy)-5-fluorophenyl]ureido}thiazol-4-yl)acetic acid ethyl ester]	liver specific glucokinase activators
